ChEMBL document CHEMBL1201862, “PubChem BioAssay data set” (2004)
Activity calls are given as the source filed them.

Key:
[1] = molecular target: NADPH oxidase 1 (Homo sapiens, UniProt Q9Y5S8); test: Late-stage luminescence-based cell-based dose response assay to identify inhibitors of NADPH oxidase 1 (NOX1): Synthesized analogs 2.; format: functional
[2] = molecular target: Aryl hydrocarbon receptor (Homo sapiens, UniProt P35869); test: Luminescence-based cell-based high throughput dose response assay for activators of the Aryl Hydrocarbon Receptor (AHR). [Related pubchem assays: 2796 (Primary screen (AHR activators in singlicate)), 2845 (Confirmation screen (AHR activators in triplicate)), 434939 (Counterscreen (PXR activators in triplicate)), 2804 (Summary (AHR activators))]; format: ADME
[3] = viability of uninfected HEp-2 cells – cell-based, HTS, cytotoxicity control for RSV inhibitor project, dose response (AID 2410); format: functional; conditions: human respiratory syncytial virus
[4] = Luminescence Cell-Based Dose Retest to Confirm Inhibitors of Cancer Stem Cells. [Related pubchem assays (depositor defined):AID2717, AID2721]; format: functional; conditions: Homo sapiens
[5] = M. tuberculosis growth inhibition, HTS (AID 449762); format: functional
[6] = molecular target: T1, Tyrosine-protein phosphatase non-receptor type 7 (Homo sapiens, UniProt P35236); test: HePTP tyrosine phosphatase activity blockers – biochemical, absorbance, leukemia target, primary screen (AID 521); format: functional
T1 sequence (P35236 whole entry): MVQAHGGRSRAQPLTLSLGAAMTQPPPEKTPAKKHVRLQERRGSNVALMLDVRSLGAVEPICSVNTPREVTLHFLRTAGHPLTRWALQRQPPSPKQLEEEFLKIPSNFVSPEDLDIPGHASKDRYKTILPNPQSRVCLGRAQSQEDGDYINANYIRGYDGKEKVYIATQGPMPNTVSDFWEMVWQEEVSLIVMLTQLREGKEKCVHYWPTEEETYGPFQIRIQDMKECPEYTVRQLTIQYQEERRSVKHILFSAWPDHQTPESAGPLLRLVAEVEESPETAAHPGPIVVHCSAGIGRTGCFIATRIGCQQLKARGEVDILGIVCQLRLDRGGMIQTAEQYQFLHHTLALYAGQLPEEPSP

[7] = molecular target: Oxytocin receptor (Homo sapiens, UniProt P30559); test: Fluorescence-based cell-based high throughput dose response assay for potentiators of Oxytocin Receptor (OXTR). [Related pubchem assays: 434985 (Confirmation screen (OXTR potentiators in triplicate)), 2481 (Summary (OXTR potentiators)), 2445 (Primary screen (OXTR potentiators in singlicate))]; format: functional
[8] = molecular target: T2, Induced myeloid leukemia cell differentiation protein Mcl-1 (Homo sapiens, UniProt Q07820); test: blockers of MCL1 binding to BIM peptide – biochemical, fluorescence polarization, BIM-BH3 peptide, 1536-well, dose response (AID 2217)
[9] = molecular target: Bcl-2-like protein 1 (Homo sapiens, UniProt Q07817); test: blockers of BCLXL peptide binding – biochemical, fluorescence polarization, 1536-well, selectivity assay for MCL1 inhibitor project, dose response (AID 2218)
[10] = molecular target: T2, Induced myeloid leukemia cell differentiation protein Mcl-1; format: functional
[11] = molecular target: T3, Carboxy-terminal domain RNA polymerase II polypeptide A small phosphatase 1 (Homo sapiens, UniProt Q9GZU7); test: CTDSP1 inhibitors, concentration-response, biochemical, absorbance readout, ultra-high-throughput screen actives (AID 540297); format: functional
T3 sequence (Q9GZU7 whole entry): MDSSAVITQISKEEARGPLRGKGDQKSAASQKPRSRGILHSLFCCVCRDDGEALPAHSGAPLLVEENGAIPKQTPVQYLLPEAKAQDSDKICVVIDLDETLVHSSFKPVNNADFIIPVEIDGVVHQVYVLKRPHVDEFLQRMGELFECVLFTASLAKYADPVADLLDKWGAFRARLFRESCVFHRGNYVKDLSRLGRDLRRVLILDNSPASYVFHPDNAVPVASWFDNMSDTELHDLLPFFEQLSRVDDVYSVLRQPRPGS

[12] = molecular target: T4, Bcl-2-related protein A1 (Mus musculus, UniProt Q07440); test: small-molecule antagonists of Bfl-1/BH3 interaction – biochemical, TR-FRET, mouse Bfl-1, confirmation (AID 621);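 note: TR-FRET binding of GST-Bfl-1 to FITC-labelled Bid peptide via terbium antibody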
T4 sequence (Q07440 whole entry): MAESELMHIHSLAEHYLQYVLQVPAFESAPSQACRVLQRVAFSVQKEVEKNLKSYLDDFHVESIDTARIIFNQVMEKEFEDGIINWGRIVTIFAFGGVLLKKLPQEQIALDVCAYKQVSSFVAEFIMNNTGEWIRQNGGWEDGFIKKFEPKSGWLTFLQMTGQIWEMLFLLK

[13] = molecular target: Glyceraldehyde-3-phosphate dehydrogenase (Homo sapiens, UniProt P04406)
[14] = molecular target: T4, Bcl-2-related protein A1; test: Bfl-1 binding inhibitors, SAR follow-up, biochemical, fluorescence polarization (AID 1070)
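Throughout, for AC50: cells exposed to compound for roughly 70 hours or longer before luminescence read.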

T2 sequence (Q07820 whole entry): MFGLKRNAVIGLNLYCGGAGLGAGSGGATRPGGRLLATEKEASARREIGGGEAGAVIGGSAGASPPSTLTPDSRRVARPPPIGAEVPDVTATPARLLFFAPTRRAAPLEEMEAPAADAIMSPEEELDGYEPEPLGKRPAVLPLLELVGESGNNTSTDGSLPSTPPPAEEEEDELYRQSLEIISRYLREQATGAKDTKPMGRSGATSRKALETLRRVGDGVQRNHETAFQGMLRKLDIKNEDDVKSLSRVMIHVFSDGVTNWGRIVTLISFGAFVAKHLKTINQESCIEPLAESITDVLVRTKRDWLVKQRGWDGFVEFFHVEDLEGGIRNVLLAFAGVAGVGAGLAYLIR
Chain of Glyceraldehyde-3-phosphate dehydrogenase (P04406 whole entry): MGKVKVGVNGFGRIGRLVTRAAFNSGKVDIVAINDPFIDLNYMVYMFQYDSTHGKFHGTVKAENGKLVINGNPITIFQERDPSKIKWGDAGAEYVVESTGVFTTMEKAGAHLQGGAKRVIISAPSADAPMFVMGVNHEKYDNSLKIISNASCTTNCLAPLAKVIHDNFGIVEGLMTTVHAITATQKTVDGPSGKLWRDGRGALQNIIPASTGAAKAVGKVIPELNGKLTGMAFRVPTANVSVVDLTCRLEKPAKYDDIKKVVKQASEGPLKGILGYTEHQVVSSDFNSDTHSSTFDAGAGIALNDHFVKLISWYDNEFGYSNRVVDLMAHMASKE
Chain of Oxytocin receptor (P30559 whole entry): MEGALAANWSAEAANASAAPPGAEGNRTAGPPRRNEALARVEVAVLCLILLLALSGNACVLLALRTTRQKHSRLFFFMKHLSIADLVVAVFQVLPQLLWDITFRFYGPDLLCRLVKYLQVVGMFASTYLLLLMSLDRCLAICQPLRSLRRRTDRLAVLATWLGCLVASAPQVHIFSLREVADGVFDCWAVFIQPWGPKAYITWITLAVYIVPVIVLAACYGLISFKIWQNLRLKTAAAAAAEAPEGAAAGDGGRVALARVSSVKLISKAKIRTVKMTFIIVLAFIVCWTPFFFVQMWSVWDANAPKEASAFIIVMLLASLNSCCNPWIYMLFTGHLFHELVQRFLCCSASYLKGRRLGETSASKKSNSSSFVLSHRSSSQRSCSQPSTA
Chain of Aryl hydrocarbon receptor (P35869 whole entry): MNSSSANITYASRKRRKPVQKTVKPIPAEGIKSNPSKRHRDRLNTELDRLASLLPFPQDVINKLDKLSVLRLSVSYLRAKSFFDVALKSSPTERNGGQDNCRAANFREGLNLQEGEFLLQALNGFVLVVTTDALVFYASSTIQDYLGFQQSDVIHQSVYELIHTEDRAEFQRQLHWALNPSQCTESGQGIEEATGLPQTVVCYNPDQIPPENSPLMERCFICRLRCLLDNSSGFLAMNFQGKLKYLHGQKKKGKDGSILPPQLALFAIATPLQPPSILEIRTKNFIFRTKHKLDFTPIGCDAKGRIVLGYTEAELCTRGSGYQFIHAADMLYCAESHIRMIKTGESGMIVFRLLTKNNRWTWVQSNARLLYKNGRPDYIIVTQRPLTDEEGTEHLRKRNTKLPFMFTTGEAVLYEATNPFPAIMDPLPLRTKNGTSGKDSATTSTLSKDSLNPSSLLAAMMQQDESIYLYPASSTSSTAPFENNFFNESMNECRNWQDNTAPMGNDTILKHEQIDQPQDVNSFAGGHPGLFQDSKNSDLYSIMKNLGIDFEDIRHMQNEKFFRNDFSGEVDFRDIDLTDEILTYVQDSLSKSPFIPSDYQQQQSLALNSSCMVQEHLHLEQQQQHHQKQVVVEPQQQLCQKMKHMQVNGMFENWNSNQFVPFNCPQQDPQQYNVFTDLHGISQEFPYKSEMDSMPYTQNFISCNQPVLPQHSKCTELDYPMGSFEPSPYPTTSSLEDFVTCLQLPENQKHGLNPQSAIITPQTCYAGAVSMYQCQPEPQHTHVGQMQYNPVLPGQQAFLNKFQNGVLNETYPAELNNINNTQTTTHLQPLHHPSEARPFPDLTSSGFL
Chain of NADPH oxidase 1 (Q9Y5S8 whole entry): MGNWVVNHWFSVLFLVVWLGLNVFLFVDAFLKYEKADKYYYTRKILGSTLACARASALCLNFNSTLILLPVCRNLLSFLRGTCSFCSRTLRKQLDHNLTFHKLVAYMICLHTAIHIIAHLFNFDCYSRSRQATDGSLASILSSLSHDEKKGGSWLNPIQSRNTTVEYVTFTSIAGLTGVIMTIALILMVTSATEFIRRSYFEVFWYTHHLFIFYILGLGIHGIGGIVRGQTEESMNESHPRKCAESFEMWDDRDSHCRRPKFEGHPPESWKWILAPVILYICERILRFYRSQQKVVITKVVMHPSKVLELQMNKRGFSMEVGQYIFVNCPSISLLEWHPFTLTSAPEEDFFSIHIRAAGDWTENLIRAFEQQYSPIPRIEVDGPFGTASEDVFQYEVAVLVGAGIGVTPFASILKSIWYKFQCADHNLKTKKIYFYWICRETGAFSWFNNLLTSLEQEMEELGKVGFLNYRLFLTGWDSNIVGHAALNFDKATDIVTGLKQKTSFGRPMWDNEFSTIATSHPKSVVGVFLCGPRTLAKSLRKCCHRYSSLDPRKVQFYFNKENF
Chain of Bcl-2-like protein 1 (Q07817 whole entry): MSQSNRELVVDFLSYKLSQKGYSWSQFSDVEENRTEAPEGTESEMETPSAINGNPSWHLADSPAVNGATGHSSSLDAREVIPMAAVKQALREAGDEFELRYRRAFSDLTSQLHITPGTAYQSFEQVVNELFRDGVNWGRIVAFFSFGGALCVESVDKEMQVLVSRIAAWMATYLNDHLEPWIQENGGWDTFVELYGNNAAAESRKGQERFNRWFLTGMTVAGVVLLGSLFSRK

## ClCCN1c2ccccc2Sc2ccc(Cl)cc21
[1]
  IC50: > 50 µM (not active)

## COc1cc2c(cc1NC(=O)Nc1ccc(C)cc1)oc1ccccc12
[2]
  EC50: 1.47 µM (active)
[3]
  CC50: 26.4 µM (active)
[4]
  AC50: 1.88 µM (active)

## CC1(CCc2ccccc2)N=C(S)N(c2ccc(Cl)cc2)N1 (centres undefined)
[5]
  IC50: > 100 µM (active)

## Brc1ccc(-c2nnc3sc(CNC4CCCC4)cn23)cc1
[6]
  IC50: > 100 µM (not active)

## Cc1cc(C)n(-c2cc(C(C)(C)C)nc3c(-c4ccc(Cl)cc4)cnn23)n1
[7]
  EC50: > 29.9 µM (not active)

## O=C(/C=C/c1ccc(Cl)c([N+](=O)[O-])c1)Nc1ccc(N2CCCC2)cc1
[8]
  IC50: 20.9 µM (not active)
[9]
  IC50: > 109 µM (not active)
[10]
  IC50: > 54 µM (active)
[11]
  IC50: 3.29 µM (active)

## CN1CCN(C2=CC(=O)N(c3ccc(Cl)cc3)C2=O)CC1
[12]
  IC50: > 100 µM (not active)
[13]
  IC50: > 100 µM (not active)
[14]
  IC50: > 100 µM (not active)
